The results in this text go back to PubChem BioAssay (NCI).

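How tested: cells in 96-well plates exposed to compound for 48 hours at five concentrations. TGI: concentration producing complete growth inhibition.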

Test systems include ACHN renal; CAKI-1 renal; CCRF-CEM leukemia; COLO 205 colon; EKVX NSCLC; HOP-92 NSCLC; HS 578T breast; K-562 leukemia; MDA-MB-435; NCI-H226 lung; NCI-H460 lung; NCI/ADR-RES ovarian; RXF 393 renal; SF-268 CNS; SK-MEL-28 melanoma; SNB-19 CNS; SW-620 colon; TK-10 renal; HCT-15 colon.
Common to all, as to test: DTP human tumour cell line panel, 48 h

`CC1(C)COC(c2cccc(C(O)c3ccc(Cl)cc3)c2)=N1` (centres undefined): the TGI – broadly, the concentration at which net growth stops – was > 100 µM in the test on ACHN renal; 87.1 µM in the test with CAKI-1 renal; > 100 µM in the test on CCRF-CEM leukemia; 34 µM with COLO 205 colon; > 100 µM with EKVX NSCLC; 59 µM in the test on HOP-92 NSCLC. The TGI in the test with HS 578T breast is > 100 µM; in the test with K-562 leukemia, > 100 µM; in the test with MDA-MB-435, 67.3 µM; in the test with NCI-H226 lung it was 33.5 µM; with NCI-H460 lung it was > 100 µM; in the test with NCI/ADR-RES ovarian, 77.2 µM. The TGI was 37.8 µM with RXF 393 renal; 87.3 µM in the test with SF-268 CNS; > 100 µM with SK-MEL-28 melanoma; > 100 µM in the test on SNB-19 CNS; > 100 µM with SW-620 colon; 76.3 µM in the test on TK-10 renal.

As for `C[n+]1c(-c2ccc(/C=N\Nc3ccnc(N/N=C/c4ccc(-c5cn6ccsc6[n+]5C)cc4)n3)cc2)cn2ccsc21`, the TGI is > 100 µM in the test with ACHN renal; 80.8 µM in the test on CAKI-1 renal; 63.8 µM with CCRF-CEM leukemia; 66.6 µM with COLO 205 colon; 50 µM in the test with EKVX NSCLC; > 100 µM with HCT-15 colon. The TGI in the test on HOP-92 NSCLC was > 100 µM; in the test on HS 578T breast, > 100 µM; in the test with K-562 leukemia, > 100 µM; with MDA-MB-435, 6.94 µM; in the test with NCI-H226 lung, 66.7 µM; in the test with NCI-H460 lung, > 100 µM. Also, the TGI in the test with NCI/ADR-RES ovarian was > 100 µM; with RXF 393 renal, 56.3 µM; in the test with SNB-19 CNS, > 100 µM; in the test with SW-620 colon it was > 100 µM; with TK-10 renal, > 100 µM.

For `OC(Cc1cnnc2ccccc12)C(Cl)(Cl)Cl` (centres undefined), the TGI in the test with ACHN renal, in the test on CAKI-1 renal, in the test with CCRF-CEM leukemia, with COLO 205 colon, with EKVX NSCLC and in the test on HCT-15 colon was > 10 µM each time. The TGI in the test with HOP-92 NSCLC, with HS 578T breast, in the test on K-562 leukemia, in the test with MDA-MB-435, in the test on NCI-H226 lung and in the test with NCI-H460 lung was > 10 µM throughout. The concentration for total growth inhibition (TGI) in the test with NCI/ADR-RES ovarian, with RXF 393 renal, in the test with SF-268 CNS, with SK-MEL-28 melanoma, in the test on SNB-19 CNS and with SW-620 colon was > 10 µM each time. The TGI in the test on TK-10 renal is > 10 µM.

Turning to `C#CCC(O)c1ccc(OC)c(OCc2ccccc2)c1` (centres undefined), the TGI with ACHN renal, with CAKI-1 renal, in the test on CCRF-CEM leukemia, in the test on COLO 205 colon, in the test on EKVX NSCLC and in the test on HCT-15 colon was > 100 µM throughout. For the same compound, the TGI in the test on HOP-92 NSCLC, in the test with HS 578T breast, with K-562 leukemia, in the test with MDA-MB-435, with NCI-H226 lung and with NCI-H460 lung was > 100 µM in each case. The TGI in the test with NCI/ADR-RES ovarian, with RXF 393 renal, in the test with SF-268 CNS, with SK-MEL-28 melanoma, with SNB-19 CNS and with TK-10 renal was > 100 µM in each case.

Consider `C[Si](C)(C)CCOCN(C(=O)C1=CCC2(CC1)OCCO2)c1ccccc1I`, for which the TGI in the test with ACHN renal is 44 µM; with CAKI-1 renal it was 55.7 µM; with CCRF-CEM leukemia it was 79.5 µM; with COLO 205 colon, > 100 µM; with EKVX NSCLC it was 29.1 µM; in the test with HCT-15 colon, 41.6 µM. Besides, the concentration for total growth inhibition (TGI) is 22.1 µM in the test on HOP-92 NSCLC; 44.6 µM in the test on HS 578T breast; > 100 µM in the test with K-562 leukemia; 33.8 µM in the test with MDA-MB-435; 53.8 µM with NCI-H226 lung; 61.3 µM in the test on NCI-H460 lung. Besides, the TGI with NCI/ADR-RES ovarian was > 100 µM; with RXF 393 renal, 35.4 µM; in the test with SF-268 CNS, 41.9 µM; with SK-MEL-28 melanoma it was 42.9 µM; with SNB-19 CNS, 37.7 µM; with SW-620 colon it was 68 µM. Further, the TGI with TK-10 renal was determined as 63.5 µM.

With `COC(=O)c1ccccc1/C=C1\Cc2ccc3c(c2C1=O)CCC3`, the TGI in the test with ACHN renal, with CAKI-1 renal, with CCRF-CEM leukemia, with COLO 205 colon, in the test with EKVX NSCLC and in the test with HCT-15 colon was > 100 µM in each case. Besides, the TGI with HOP-92 NSCLC, with HS 578T breast, with K-562 leukemia, in the test with MDA-MB-435, in the test on NCI-H226 lung and in the test on NCI-H460 lung was > 100 µM each time. Moreover, the TGI in the test on NCI/ADR-RES ovarian, in the test with RXF 393 renal, with SF-268 CNS, in the test with SK-MEL-28 melanoma, in the test with SW-620 colon and in the test on TK-10 renal was > 100 µM throughout.
